Laboratory results taken from patent publication US20030180399A1, “Therapeutic/edible compositions comprising herbal ingredients and methods for treating hyperglycemia” (COUNCIL OF SCIENTIFIC & INDUSTRIAL RESEARCH, priority 2002, published 2003).

What was measured:
[1] = test system: oral glucose tolerance in rats; experiment: Glucose Tolerance Test (GTT) in rats; type: in vivo, Male albino rats of wistar strains; details: rats loaded with glucose 5 g/kg 2 hours after dosing; P<0.05; glibenclamide 3 mg/Kg
Excerpt: Brief description of the accompanying drawings: Figure-1. Describes the effect of herbal formulation and glibenclamide on oral glucose tolerance tests in rats. From the above STZ induced diabetic model the composition 1 has chosen for GTT study. Male albino rats of wistar strains (150-200 g) were used. They were divided into three groups each containing 6 rats. They were randomly assigned A) control group B) standard group (glibenclamide) C) test group. Group A was given saline, group B was given glibenclamide (3 mg/Kg) and group C was given test compositions. After 2 hours all rats were loaded with glucose with a dose of 5 g/kg. Blood samples were taken from tail vein of conscious rats for every 30 minutes up to 3 hours. Plasma glucose estimations were done by glucose oxidase method by using Auto Blood Analyzer as described in FIG. 1. The statistical analysis was performed using Prism program (Graphpad software). Annova with post Newman—Keul test with P values was used to compare the treatment efficacy between the test groups.

[2] = test system: STZ induced diabetic model; experiment: Plasma glucose level in streptozocin (STZ) induced diabetic rats, 15 days treatment; type: in vivo, Male albino rats of wistar strains; details: n=6, glibenclamide 3 mg/Kg
Protocol: Male albino rats of wistar strains (150-200 g) were used throughout the studies. Rats were divided into eleven groups of each containing 6 rats. These animals were randomly assigned to the following groups which include (A) control group, (B) standard group (glibenclamide, 3 mg/Kg) and (C) test groups (F1-F9). Diabetes was induced by injecting streptozocin (STZ) in a dose of 65 mg/kg intra venous in 0.1M citrate buffer. Rats were kept fasted overnight but were given water ad libitum. After 48 hours of STZ injection, blood samples were taken from tail vein of conscious rats. The blood was centrifuged at 5000 rpm for 10 minutes in an eppendorf tubes containing EDTA (1 mg/ml of blood). Plasma glucose estimations were done by glucose oxidase method by using Auto blood analyzer (Techinicon RA-100, Bayer Diagnostics, Ireland). Animals with blood glucose level more than 250% of the fasting level were considered to be diabetic and were used for the experiment. Group A was given normal saline, group B was given glibenclamide and various groups of C were given herbal compositions for 15 days at least once in day. Blood was collected from tail veins of all the rats after 7 days and 15 days of treatment and glucose levels were estimated as described previously (Table 2). The statistical analysis was performed using Prism program (Graphpad software). […]

## COc1ccc(Cl)cc1C(=O)NCCc1ccc(S(=O)(=O)NC(=O)NC2CCCCC2)cc1 [Glibenclamide]
[1]
  glucose tolerance compared to control group: increased
[2]; Day 7th of treatment
  % reduction in glucose levels: 27 ± 2.6%
[2]; Day 15th of treatment
  % reduction in glucose levels: 38 ± 2.9%
